Data from the NIST ThermoML archive (doi:10.1016/j.jct.2013.09.035).

Experiment: wn = mass fraction of the nth substance listed
Conditions: Liquid, Vibrating tube method, w2 = 0.5

CCOC(F)(F)C(F)(C(F)(F)F)C(F)(F)F [nonafluoroisobutyl ethyl ether] + CCOC(F)(F)C(F)(F)C(F)(F)C(F)(F)F
Conditions | mass density [kg/m3]
283.47 K, 10000 kPa | 1482.27
283.48 K, 100 kPa | 1457.82
283.48 K, 1000 kPa | 1460.24
283.48 K, 3000 kPa | 1465.3
283.48 K, 5000 kPa | 1470.22
283.48 K, 25000 kPa | 1513.47
283.48 K, 30000 kPa | 1522.25
283.49 K, 15000 kPa | 1493.18
283.49 K, 20000 kPa | 1503.4
283.49 K, 40000 kPa | 1538.97
283.49 K, 50000 kPa | 1553.61
283.49 K, 80000 kPa | 1591.2
283.49 K, 90000 kPa | 1602.13
283.49 K, 100000 kPa | 1612.51
283.5 K, 60000 kPa | 1567.59
283.5 K, 70000 kPa | 1579.58
293.33 K, 40000 kPa | 1520.74
293.33 K, 50000 kPa | 1536.34
293.34 K, 100 kPa | 1433.67
293.34 K, 3000 kPa | 1442.2
293.34 K, 5000 kPa | 1447.74
293.34 K, 10000 kPa | 1460.66
293.34 K, 25000 kPa | 1493.61
293.34 K, 80000 kPa | 1575.81
293.35 K, 15000 kPa | 1472.51
293.35 K, 20000 kPa | 1483.44
293.35 K, 70010 kPa | 1563.65
293.35 K, 100000 kPa | 1597.56
293.36 K, 1000 kPa | 1436.34
293.36 K, 30000 kPa | 1503.18
293.36 K, 60000 kPa | 1550.72
293.36 K, 90000 kPa | 1586.86
303.23 K, 100 kPa | 1410.99
303.23 K, 1000 kPa | 1413.95
303.23 K, 3000 kPa | 1420.34
303.23 K, 5000 kPa | 1426.43
303.23 K, 10000 kPa | 1440.51
303.23 K, 15000 kPa | 1453.28
303.23 K, 30000 kPa | 1485.94
303.23 K, 40000 kPa | 1504.31
303.23 K, 70000 kPa | 1549.38
303.23 K, 90000 kPa | 1573.69
303.23 K, 100000 kPa | 1584.73
303.24 K, 20000 kPa | 1464.95
303.24 K, 25000 kPa | 1475.81
303.24 K, 50000 kPa | 1520.78
303.24 K, 60000 kPa | 1535.65
303.24 K, 80000 kPa | 1561.98
313.14 K, 40000 kPa | 1487.04
313.15 K, 25000 kPa | 1456.84
313.15 K, 50000 kPa | 1504.3
313.15 K, 60000 kPa | 1519.95
313.16 K, 15000 kPa | 1432.86
313.16 K, 20000 kPa | 1445.3
313.16 K, 30000 kPa | 1467.53
313.17 K, 1000 kPa | 1390.04
313.17 K, 5000 kPa | 1403.68
313.17 K, 10000 kPa | 1418.95
313.17 K, 100000 kPa | 1571.77
313.18 K, 100 kPa | 1386.8
313.18 K, 3000 kPa | 1397.04
313.18 K, 90000 kPa | 1559.98
313.19 K, 70000 kPa | 1535.1
313.19 K, 80000 kPa | 1547.94
323.03 K, 70000 kPa | 1522.41
323.03 K, 79990 kPa | 1535.93
323.03 K, 90000 kPa | 1548.47
323.03 K, 100000 kPa | 1560.39
323.04 K, 15000 kPa | 1415.6
323.04 K, 20000 kPa | 1429.06
323.04 K, 25000 kPa | 1441.36
323.04 K, 30000 kPa | 1452.73
323.04 K, 40000 kPa | 1473.17
323.04 K, 50000 kPa | 1491.32
323.04 K, 60000 kPa | 1507.67
323.05 K, 100 kPa | 1365.33
323.05 K, 1000 kPa | 1368.99
323.05 K, 3000 kPa | 1376.71
323.05 K, 5000 kPa | 1384.07
323.05 K, 10000 kPa | 1400.75
332.93 K, 80000 kPa | 1522.17
332.93 K, 90000 kPa | 1535.21
332.93 K, 100000 kPa | 1547.28
332.94 K, 15000 kPa | 1395.61
332.94 K, 20000 kPa | 1409.99
332.94 K, 25000 kPa | 1423.08
332.94 K, 30000 kPa | 1435.1
332.94 K, 40000 kPa | 1456.69
332.94 K, 50000 kPa | 1475.63
332.94 K, 60000 kPa | 1492.7
332.94 K, 70000 kPa | 1508.09
332.95 K, 100 kPa | 1340.66
332.95 K, 1000 kPa | 1344.7
332.95 K, 3000 kPa | 1353.32
332.95 K, 5000 kPa | 1361.37
332.95 K, 10000 kPa | 1379.59
342.83 K, 100 kPa | 1316.31
342.83 K, 3000 kPa | 1330.5
342.84 K, 1000 kPa | 1320.87
342.84 K, 5000 kPa | 1339.38
342.85 K, 10000 kPa | 1359.29
342.85 K, 15000 kPa | 1376.59
342.85 K, 20000 kPa | 1391.96
342.86 K, 25000 kPa | 1405.93
342.86 K, 30000 kPa | 1418.67
342.86 K, 40000 kPa | 1441.37
342.87 K, 60000 kPa | 1479.04
342.87 K, 69990 kPa | 1494.97
342.87 K, 80000 kPa | 1509.52
342.88 K, 50000 kPa | 1461.22
342.88 K, 90000 kPa | 1522.96
342.88 K, 100000 kPa | 1535.5
352.77 K, 3000 kPa | 1307.3
352.78 K, 1000 kPa | 1296.47
352.78 K, 5000 kPa | 1317.18
352.78 K, 10000 kPa | 1339.03
352.78 K, 15000 kPa | 1357.74
352.78 K, 20000 kPa | 1374.27
352.78 K, 25000 kPa | 1389.09
352.78 K, 30000 kPa | 1402.65
352.78 K, 40000 kPa | 1426.56
352.78 K, 50000 kPa | 1447.34
352.78 K, 60000 kPa | 1465.76
352.79 K, 70000 kPa | 1482.51
352.79 K, 80000 kPa | 1497.6
352.79 K, 90000 kPa | 1511.48
352.79 K, 100000 kPa | 1524.4
362.72 K, 1000 kPa | 1270.63
362.72 K, 3000 kPa | 1282.75
362.73 K, 5000 kPa | 1293.79
362.73 K, 10000 kPa | 1317.75
362.73 K, 15000 kPa | 1338.07
362.73 K, 20000 kPa | 1355.77
362.73 K, 25000 kPa | 1371.52
362.73 K, 30000 kPa | 1385.83
362.73 K, 40000 kPa | 1410.97
362.73 K, 50000 kPa | 1432.73
362.73 K, 60000 kPa | 1451.97
362.73 K, 70000 kPa | 1469.11
362.73 K, 80000 kPa | 1484.73
362.73 K, 90000 kPa | 1499.1
362.73 K, 100000 kPa | 1512.38
